Data as given in ChEMBL document CHEMBL3352775, “Identification of substituted 3-hydroxy-2-mercaptocyclohex-2-enones as potent inhibitors of human lactate dehydrogenase” (Bioorg Med Chem Lett, 2014).
≈ marks a conversion by molar mass, not a printed value.

What was measured:
[1] = biological target: T1, L-lactate dehydrogenase A chain (Homo sapiens, UniProt P00338); test: Inhibition of human recombinant carboxy-terminal His-tagged LDHA by UV endpoint assay
[2] = biological target: T1, L-lactate dehydrogenase A chain; test: Inhibition of human recombinant carboxy-terminal His-tagged LDHA by MS endpoint assay
[3] = biological target: T1, L-lactate dehydrogenase A chain; test: Inhibition of human recombinant carboxy-terminal His-tagged LDHA by SPR assay in presence of +NADH
[4] = biological target: T1, L-lactate dehydrogenase A chain; test: Inhibition of human recombinant carboxy-terminal His-tagged LDHA by SPR assay
[5] = Dissociation constant, pKa of the compound; assay type: physicochemical
[6] = Clearance in Sprague-Dawley rat liver microsomes at 1 uM up to 60 mins by LC-MS/MS analysis; assay type: ADME
[7] = Clearance in human liver microsomes at 1 uM up to 60 mins by LC-MS/MS analysis; assay type: ADME
[8] = Fraction unbound in rat plasma by LC-MS/MS analysis; assay type: ADME, cell-free
[9] = Fraction unbound in human plasma by LC-MS/MS analysis; assay type: ADME, cell-free
[10] = Apparent permeability from apical to basolateral side in MDCK cells at 2 uM by LC-MS/MS analysis; assay type: ADME, cell-based, Canis lupus familiaris; conditions: dog
[11] = Aqueous solubility of the compound in PBS buffer at pH 7.2; assay type: physicochemical
Cytochrome P450 3A4 = Cytochrome P450 3A4 (Homo sapiens, UniProt P08684); test: Inhibition of CYP3A4 (unknown origin); assay type: ADME
Chain of Cytochrome P450 3A4 (P08684 whole entry): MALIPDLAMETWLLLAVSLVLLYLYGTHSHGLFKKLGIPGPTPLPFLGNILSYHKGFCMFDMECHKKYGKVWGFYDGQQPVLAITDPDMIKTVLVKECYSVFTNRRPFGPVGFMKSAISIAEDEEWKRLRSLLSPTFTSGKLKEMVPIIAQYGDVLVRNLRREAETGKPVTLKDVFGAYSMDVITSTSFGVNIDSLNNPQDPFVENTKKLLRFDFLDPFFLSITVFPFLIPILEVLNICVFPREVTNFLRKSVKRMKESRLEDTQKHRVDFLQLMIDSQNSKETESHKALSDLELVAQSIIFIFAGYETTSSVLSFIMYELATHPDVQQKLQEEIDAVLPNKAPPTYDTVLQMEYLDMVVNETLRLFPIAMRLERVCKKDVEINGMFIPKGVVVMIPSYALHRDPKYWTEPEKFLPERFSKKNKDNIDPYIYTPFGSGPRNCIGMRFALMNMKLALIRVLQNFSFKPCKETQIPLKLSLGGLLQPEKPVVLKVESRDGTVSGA

Cytochrome P450 2D6 = Cytochrome P450 2D6 (Homo sapiens, UniProt P10635); test: Inhibition of CYP2D6 (unknown origin); assay type: ADME
Chain of Cytochrome P450 2D6 (P10635 whole entry): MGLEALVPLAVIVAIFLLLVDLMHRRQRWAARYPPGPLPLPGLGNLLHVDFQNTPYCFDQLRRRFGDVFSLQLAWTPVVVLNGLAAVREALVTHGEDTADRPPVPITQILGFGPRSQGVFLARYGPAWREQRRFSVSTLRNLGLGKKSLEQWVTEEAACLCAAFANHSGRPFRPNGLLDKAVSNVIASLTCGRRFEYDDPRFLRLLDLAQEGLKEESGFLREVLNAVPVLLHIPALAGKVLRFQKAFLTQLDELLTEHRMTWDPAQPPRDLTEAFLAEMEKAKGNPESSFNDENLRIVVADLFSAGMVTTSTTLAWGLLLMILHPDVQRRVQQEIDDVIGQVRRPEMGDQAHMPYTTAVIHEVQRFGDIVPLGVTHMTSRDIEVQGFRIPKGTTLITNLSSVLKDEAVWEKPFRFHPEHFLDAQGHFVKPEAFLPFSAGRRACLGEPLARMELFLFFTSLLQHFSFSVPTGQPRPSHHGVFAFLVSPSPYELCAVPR

Cytochrome P450 2C9 = Cytochrome P450 2C9 (Homo sapiens, UniProt P11712); test: Inhibition of CYP2C9 (unknown origin); assay type: ADME
Chain of Cytochrome P450 2C9 (P11712 whole entry): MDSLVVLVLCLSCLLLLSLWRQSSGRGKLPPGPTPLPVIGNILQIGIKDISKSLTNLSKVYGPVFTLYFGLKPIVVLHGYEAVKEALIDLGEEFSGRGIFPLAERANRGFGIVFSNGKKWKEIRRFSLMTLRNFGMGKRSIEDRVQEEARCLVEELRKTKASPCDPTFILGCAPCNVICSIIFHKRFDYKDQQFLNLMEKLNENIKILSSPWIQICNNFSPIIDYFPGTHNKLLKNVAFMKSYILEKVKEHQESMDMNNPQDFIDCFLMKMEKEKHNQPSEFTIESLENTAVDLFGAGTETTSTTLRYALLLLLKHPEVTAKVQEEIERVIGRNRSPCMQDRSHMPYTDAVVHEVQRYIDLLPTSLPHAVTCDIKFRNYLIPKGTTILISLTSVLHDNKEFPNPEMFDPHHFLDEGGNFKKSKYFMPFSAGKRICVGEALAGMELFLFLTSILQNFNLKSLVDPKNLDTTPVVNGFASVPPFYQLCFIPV

Cytochrome P450 1A2 = biological target: T2, Cytochrome P450 1A2 (Homo sapiens, UniProt P05177); test: Inhibition of CYP1A2 (unknown origin); assay type: ADME
T2 sequence (P05177 whole entry): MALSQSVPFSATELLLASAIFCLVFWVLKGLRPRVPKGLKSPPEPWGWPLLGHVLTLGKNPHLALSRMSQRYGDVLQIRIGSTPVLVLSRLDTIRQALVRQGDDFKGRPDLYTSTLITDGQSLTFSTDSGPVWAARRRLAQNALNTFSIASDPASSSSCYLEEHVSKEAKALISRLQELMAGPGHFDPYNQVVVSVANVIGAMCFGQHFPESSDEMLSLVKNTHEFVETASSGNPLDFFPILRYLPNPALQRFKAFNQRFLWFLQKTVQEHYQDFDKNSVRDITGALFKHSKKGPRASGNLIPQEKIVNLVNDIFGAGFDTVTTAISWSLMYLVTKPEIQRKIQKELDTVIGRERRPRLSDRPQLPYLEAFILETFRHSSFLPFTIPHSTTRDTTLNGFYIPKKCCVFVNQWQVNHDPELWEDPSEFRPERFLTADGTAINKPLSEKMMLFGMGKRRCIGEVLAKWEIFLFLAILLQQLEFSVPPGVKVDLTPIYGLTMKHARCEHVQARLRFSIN

[12] = AUC (0 to 24 hrs) in Sprague-Dawley rat at 0.5 mg/kg, iv; assay type: ADME, organism-based; parameters: time < 24 hr, dose 0.5 mg/kg, route intravenous; conditions: plasma
[13] = Clearance in Sprague-Dawley rat plasma at 0.5 mg/kg, iv by LC-MS/MS analysis; assay type: ADME, organism-based; parameters: dose 0.5 mg/kg, route intravenous
[14] = Volume of distribution at steady state in Sprague-Dawley rat at 0.5 mg/kg, iv; assay type: ADME, organism-based; parameters: dose 0.5 mg/kg, route intravenous; conditions: in vivo, read-out: Vdss
[15] = Half life in Sprague-Dawley rat plasma at 0.5 mg/kg, iv; assay type: ADME, organism-based; parameters: dose 0.5 mg/kg, route intravenous
[16] = AUC (0 to 24 hrs) in Sprague-Dawley rat at 2 mg/kg, po; assay type: ADME, organism-based; parameters: time < 24 hr, dose 2 mg/kg, route oral; conditions: plasma
[17] = Half life in Sprague-Dawley rat plasma at 2 mg/kg, po; assay type: ADME, organism-based; parameters: dose 2 mg/kg, route oral
[18] = Oral bioavailability in Sprague-Dawley rat plasma at 2 mg/kg; assay type: ADME, organism-based
[19] = biological target: T3, Malate dehydrogenase, cytoplasmic (Homo sapiens, UniProt P40925); test: Inhibition of human recombinant carboxy-terminal His-tagged MDH-1
T3 sequence (P40925 whole entry): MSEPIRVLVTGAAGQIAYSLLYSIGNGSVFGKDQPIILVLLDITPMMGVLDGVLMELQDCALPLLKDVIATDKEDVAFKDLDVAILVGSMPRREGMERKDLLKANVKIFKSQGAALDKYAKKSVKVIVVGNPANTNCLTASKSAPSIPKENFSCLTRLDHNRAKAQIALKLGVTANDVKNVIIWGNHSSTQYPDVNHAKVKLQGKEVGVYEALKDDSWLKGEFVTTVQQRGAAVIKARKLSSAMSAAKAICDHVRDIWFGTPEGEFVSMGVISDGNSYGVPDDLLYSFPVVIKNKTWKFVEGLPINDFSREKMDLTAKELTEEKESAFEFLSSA

[20] = biological target: T4, Malate dehydrogenase, mitochondrial (Homo sapiens, UniProt P40926); test: Inhibition of human recombinant carboxy-terminal His-tagged MDH-2
T4 sequence (P40926 whole entry): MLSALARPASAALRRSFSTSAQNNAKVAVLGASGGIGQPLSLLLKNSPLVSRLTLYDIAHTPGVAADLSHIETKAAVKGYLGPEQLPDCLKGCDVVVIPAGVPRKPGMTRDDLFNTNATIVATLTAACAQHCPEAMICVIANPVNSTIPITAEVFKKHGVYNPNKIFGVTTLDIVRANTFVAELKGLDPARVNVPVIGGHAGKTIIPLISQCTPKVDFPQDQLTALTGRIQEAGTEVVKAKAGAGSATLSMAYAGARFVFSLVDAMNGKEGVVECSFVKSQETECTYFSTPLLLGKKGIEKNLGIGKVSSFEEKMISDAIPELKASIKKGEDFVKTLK

[21] = biological target: L-lactate dehydrogenase B chain (Homo sapiens, UniProt P07195)
Chain of L-lactate dehydrogenase B chain (P07195 whole entry): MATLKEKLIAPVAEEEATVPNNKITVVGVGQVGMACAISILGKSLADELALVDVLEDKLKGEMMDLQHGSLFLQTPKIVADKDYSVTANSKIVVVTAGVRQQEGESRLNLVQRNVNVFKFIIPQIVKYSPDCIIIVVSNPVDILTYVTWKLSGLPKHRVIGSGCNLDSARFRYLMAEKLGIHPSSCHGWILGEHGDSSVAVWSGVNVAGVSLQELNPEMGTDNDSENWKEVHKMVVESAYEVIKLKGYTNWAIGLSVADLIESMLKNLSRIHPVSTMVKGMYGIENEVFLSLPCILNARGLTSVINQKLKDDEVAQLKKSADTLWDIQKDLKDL
Description: Inhibition of human recombinant carboxy-terminal His-tagged LDHB by UV endpoint assay

| Compound | IC50 [1] [µM] | Kd [4] [µM] | CLhep predicted at 1 µM [6] [mL/min/kg] | CLhep predicted at 1 µM [7] [mL/min/kg] | fraction unbound [8] | fraction unbound [9] | Papp A→B at 2 µM [10] [×10⁻⁶ cm/s] | solubility [11] [µM] | IC50 (Cytochrome P450 3A4) [µM] | IC50 (Cytochrome P450 2D6) [µM] | IC50 (Cytochrome P450 2C9) [µM] | IC50 (Cytochrome P450 1A2) [µM] | IC50 [21] [µM] | other results |
| --- | --- | --- | --- | --- | --- | --- | --- | --- | --- | --- | --- | --- | --- | --- |
| O=C1CC(c2ccccc2)CC(O)=C1Sc1ccccc1[N+](=O)[O-] (stereo unspecified) | 1.7 | 771 | – | – | – | – | – | – | – | – | – | – | – | IC50 [2]: 0.88 µM; Kd [3]: 3.5 µM; pKa [5]: 2.63 |
| O=C1CC(c2ccccc2)CC(O)=C1Sc1ccccc1Cl (stereo unspecified) | 4.6 | 4.3 | 14 | 3.9 | 0.002 | 0.001 | 18 | 147 (≈ 48.6 µg/mL) | > 5 | > 5 | > 5 | > 5 | – | – |
| N#Cc1ccccc1SC1=C(O)CC(c2ccccc2)CC1=O (stereo unspecified) | 1.6 | 1.5 | 5.2 | 1.6 | 0.01 | 0.001 | 4.1 | 118 (≈ 37.9 µg/mL) | > 5 | > 5 | > 5 | > 5 | – | – |
| O=C1CC(c2c(Cl)cccc2C(F)(F)F)CC(O)=C1Sc1ccccc1Cl (stereo unspecified) | 1 | 0.5 | 37 | 17 | – | – | – | 117 (≈ 50.7 µg/mL) | > 5 | > 5 | > 5 | > 5 | – | – |
| O=C1CC(c2c(C(F)(F)F)cccc2C(F)(F)F)CC(O)=C1Sc1ccccc1Cl (stereo unspecified) | 15 | – | 38 | 18 | – | – | – | 143 (≈ 66.8 µg/mL) | > 5 | > 5 | > 5 | > 5 | 7.4 | – |

Compounds with a lower IC50 [1], results first:

| IC50 [1] [µM] | Kd [4] [µM] | CLhep predicted at 1 µM [6] [mL/min/kg] | CLhep predicted at 1 µM [7] [mL/min/kg] | fraction unbound [8] | fraction unbound [9] | Papp A→B at 2 µM [10] [×10⁻⁶ cm/s] | solubility [11] [µM] | IC50 (Cytochrome P450 3A4) [µM] | IC50 (Cytochrome P450 2D6) [µM] | IC50 (Cytochrome P450 2C9) [µM] | IC50 (Cytochrome P450 1A2) [µM] | IC50 [21] [µM] | Compound | other results |
| --- | --- | --- | --- | --- | --- | --- | --- | --- | --- | --- | --- | --- | --- | --- |
| 0.87 | 1.8 | 27 | 14 | 0.002 | 0.005 | 17 | 128 (≈ 51.2 µg/mL) | > 5 | > 5 | > 5 | > 5 | – | O=C1CC(c2c(Cl)cccc2Cl)CC(O)=C1Sc1ccccc1Cl (stereo unspecified) | AUC(0-t) at 24 h [12]: 60.3 µM·h; clearance [13]: 0.35 mL/min/kg; Vd [14]: 0.39 L; half-life [15]: 13.2 h; AUC(0-t) at 24 h [16]: 142 µM·h; half-life [17]: 10.7 h; bioavailability [18]: 45%; IC50 [19]: > 100 µM; IC50 [20]: > 100 µM |
| 0.83 | 0.43 | 24 | 12 | – | – | – | 117 (≈ 45.7 µg/mL) | > 5 | > 5 | > 5 | > 5 | 4.9 | N#Cc1ccccc1SC1=C(O)CC(c2c(Cl)cccc2Cl)CC1=O (stereo unspecified) | – |
| 0.45 | 0.24 | 31 | 15 | 0.005 | 0.002 | 14 | 75 (≈ 32.6 µg/mL) | > 5 | > 5 | > 5 | > 5 | 2 | N#Cc1ccccc1SC1=C(O)CC(c2c(Cl)cccc2Br)CC1=O (stereo unspecified) | – |
